Patent US20190292514A1, “FERMENTATION MEDIUM COMPRISING CHELATING AGENT” (priority 2016, published 2019)

Assays:
[1] = Trace element solutions with different chelating agents: pH, color and precipitation; type: physicochemical; conditions: for color development and clarity of trace element solution after final mixing: after addition of Na2MoO4 and final mixing (EDTA: after pH adjustment to pH 4); for measured pH value of trace element solution: after addition of all salts and final mixing, chelating agent equimolar to divalent cations; for precipitation of trace element solution after storage for 24 h and pH adjustment to pH 6: storage 24 h at room temperature or 4° C., pH readjusted to pH 6; for complexation and precipitation compared with citrate (summary): trace element solutions
From the text: A trace element solution was mixed together with one of the following chelating agents: citric acid, […], DTPA, EGTA, or […]. Therefore, at first each chelating agent was weight equimolar to the utilized divalent cations. […] After each compound supplementation the solutions were characterized regarding pH value, color and precipitation. After the addition of the last compound, i.e., Na2MoO4, the solutions were aliquoted. […] Afterwards samples were again characterized by pH value, color and precipitation behavior.

[2] = test system: Bacillus licheniformis producing a subtilisin protease; test: Microtiter plate cultivation, biomass growth by scattered light; type: cell-based; conditions: μL scale; for development of biomass (scatter plot) / maximal biomass values lower compared to MGDA or NTA: 30° C., 48 h; for development of biomass (scatter plot): chelating agent equimolar; for higher scatter (growth and maximal scatter values) compared to citric acid, EGTA, HEEDTA, DTPA and EDTA: FIG. 1
Description: (§1) Glucose was supplied in total in an amount of 14 g/I for a cultivation time of 48 h. […] The different fermentation media were aliquoted to a BioLector Flowerplate/microtiter plate […] labs) 700 μL each and cultivated at 30° C., shaker frequency 1200 rpm for 48 h after inoculating with Bacillus licheniformis producing a subtilisin protease. During the cultivation oxygen partial pressure, pH and scattered light for biomass growth are measured online by optical sensors every 15 min.

[3] = test system: Bacillus licheniformis producing a subtilisin protease; test: Protease formation in microtiter plate cultivation, casein based activity assay; type: cell-based; conditions: normalized activity units; for enzyme (protease) activity lower than with citrate: comparable for pH 6.7 and pH 7.7, μL scale; for enzyme (protease) activity compared with citrate: trace element solution pH 6.7 and pH 7.7, μL scale
Description: as §1, with “min. For characterization of protease formation enzyme activity was measured by casein based activity assay.” for “min.”

[4] = Fermentation medium with trace element solutions and different chelating agents: precipitation; type: physicochemical; conditions: for precipitation in fermentation medium, pH adjustment to 6: samples with pH adjustment to 6; for precipitation in fermentation medium, pH adjustment to 6 / precipitation in fermentation medium, pH adjustment to 7.7: 24 h storage; for precipitation in fermentation medium, pH adjustment to 7.7: samples with pH adjustment to 7.7
Description: A fermentation medium was mixed with different chelating agents. Therefore, deionized water, Ca(NO3)2*4 H2O, MgSO4*7H2O, NH4H2PO4, and KH2PO4 were mixed together in this certain order with the respective chelating agent. Each chelating agent was weight equimolar to the utilized divalent cations. Afterwards the pH is measured. All three media were aliquoted six times each. Three aliquots of each medium were adjusted to pH 6.7, the other three samples to pH 7.7. Samples were mixed with the trace element solutions as described in Example 1 and stored at 35° C., room temperature and 4° C. for 24 h. Then color formation and precipitation were characterized.

[5] = test system: Bacillus licheniformis producing a subtilisin protease; test: Fed-batch cultivation process in 20 L scale, protease formation; type: cell-based; conditions: 20 L scale fed-batch; for STY (productivity), space time yield normalized to % / Titer (productivity), normalized to %: 37° C., pH 7.7, 2 mL/L chelating agent, citric acid = 100%
Description: The fermentation processes were conducted in a baffled stirred tank reactor (STR) with pH, pO2 and temperature probes in a medium with glucose as main carbon source and complex plant protein as N-source. The concentration of O2 and CO2 were monitored by gas analyses. For the cultivations, the fedbatch mode was chosen with a start working volume of 10 L. As bioreactors, 21 L steal vessels were used with 3 rushton turbines with 6 blades.
Medium preparation and sterilization for seed and main culture medium took place in the bioreactor, respectively. The medium contained complex plant protein, NH4H2PO4, KH2PO4, Mn(II)SO4*H2O, Fe(II)SO4*7H2O, MgSO4*7H2O, Ca(NO3)2*4 H2O, trace element solution as described above, antifoam and 2 mL/L MGDA or citric acid. pH was adjusted to pH 6.5. The medium was sterilized in the bioreactor under stirred conditions (600 rpm) for 60 min at 121° C. For inoculation with Bacillus licheniformis producing a subtilisin protease 2% of the starting working volume was used from a seed culture fermenter with the same medium. Seed culture cultivation was conducted at 37° C. and harvested during exponential growth phase after 16 h. The main cultivation was conducted at 37° C., with pO2 dependent stirred cascade from 350-1400 rpm, pH 7.7 and an aeration rate of 1.5 wvvm. The glucose feed was started 8 h after inocu lation.

SMILES | color development and clarity of trace element solution after final mixing [1] | measured pH value of trace element solution [1] | precipitation of trace element solution after storage for 24 h and pH adjustment to pH 6 [1] | complexation and precipitation compared with citrate (summary) [1] | development of biomass (scatter plot) [2] | precipitation on supplementation of CuSO4 ([1]; during preparation of the trace element solution) | maximal biomass values lower compared to MGDA or NTA [2] | enzyme (protease) activity lower than with citrate [3] | precipitation of trace element solution after storage for 3 h at 4° C. ([1]; 3 h at 4° C.) | precipitation in fermentation medium, pH adjustment to 6 [4] | precipitation in fermentation medium, pH adjustment to 7.7 [4] | higher scatter (growth and maximal scatter values) compared to citric acid, EGTA, HEEDTA, DTPA and EDTA [2] [%] | enzyme (protease) activity compared with citrate [3] | product titer and space time yields versus citric acid [5] | STY (productivity), space time yield normalized to % [5] [%] | Titer (productivity), normalized to % [5] [%] | precipitation in fermentation medium ([4]; all samples, pH 6.7 and 7.7, 35° C., room temperature and 4° C. for 24 h)
O=C(O)CN(CCN(CC(=O)O)CC(=O)O)CCN(CC(=O)O)CC(=O)O [DTPA, diethylene triamine pentaacetic acid] | dark green and was a clear solution | 2.6 | no precipitation was detected | better results than citrate | no growth was detected |  |  |  |  |  |  |  |  |  |  |  | 
O=C(O)CN(CCN(CC(=O)O)CC(=O)O)CC(=O)O [EDTA, ethylene diamine tetraacetic acid] | blue and clear solution | 3 | no further precipitation was noticed |  | no growth was detected | strong white precipitates occurred |  |  |  |  |  |  |  |  |  |  | 
O=C(O)CN(CCOCCOCCN(CC(=O)O)CC(=O)O)CC(=O)O [EGTA, ethylene glycol tetraacetic acid] | dark blue and was a clear solution | 2.7 | the solution turned darker and brownish |  | biomass growth started delayed |  | about 20% | about 25% |  |  |  |  |  |  |  |  | 
O=C(O)CC[C@@H](C(=O)O)N(CC(=O)O)CC(=O)O [GLDA, glutamic acid N,N-diacetic acid] | light blue and was a crystal clear solution | 3.7 | precipitates were formed |  |  |  |  |  | precipitates were detected |  |  |  |  |  |  |  | 
O=C(O)CN(CCO)CCN(CC(=O)O)CC(=O)O [HEEDTA, hydroxyethylethylene diamine triacetic acid] | dark blue and was a clear solution | 2.6 | no precipitation was detected | better results than citrate | strong delayed growth and lower biomass development |  |  | 60% |  |  |  |  |  |  |  |  | 
CC(C(=O)O)N(CC(=O)O)CC(=O)O (stereo not shown) [MGDA, methyl glycine diacetic acid] | green blue and crystal clear solution | 2.8 | Neither after storage for 24 h nor after pH adjustment to pH of 6 any precipitates occurred | better results than citrate | fastest growth and highest values |  |  |  |  | low precipitations | no precipitations occurred | 20 | on a comparable level as the prior art standard citrate | higher product titer and space time yields | 110 | 104 | 
O=C(O)CN(CC(=O)O)CC(=O)O [NTA, nitrilotriacetic acid] | emerald green and was a crystal clear solution | 2.5 | Neither after storage time of 24 h nor after pH adjustment to pH of 6 any precipitates occurred | better results than citrate | fastest growth and highest values |  |  |  |  | low precipitations | no precipitations occurred | 20 | on a comparable level as the prior art standard citrate |  |  |  | 
O=C(O)CC(O)(CC(=O)O)C(=O)O [citric acid] | emerald green and was a crystal clear solution | 4.6 | precipitates formed a red pellet |  | biomass growth started delayed |  | about 20% |  |  |  |  |  |  |  | 100 | 100 | strong precipitations in all samples
